# Data published in paper PMC11233931, “Remodeling tumor‐associated macrophage for anti‐cancer effects by rational design of irreversible inhibition of mitogen‐activated protein kinase‐activated protein kinase 2” (MedComm, 2024).
# Columns and labels:
# Experiment in all cases: Eurofins kinase selectivity profile against 380 other human recombinant kinases (Table S2)
# Assay type in all cases: biochemical
# [1] = biological target: T1, 380 human recombinant protein kinases (Homo sapiens, UniProt O00444); conditions: Plk4(h), read-out: Inhibition rate
# T1 construct: purchased Eurofins (Celle Lévescault)
# T1 sequence (O00444 1-970): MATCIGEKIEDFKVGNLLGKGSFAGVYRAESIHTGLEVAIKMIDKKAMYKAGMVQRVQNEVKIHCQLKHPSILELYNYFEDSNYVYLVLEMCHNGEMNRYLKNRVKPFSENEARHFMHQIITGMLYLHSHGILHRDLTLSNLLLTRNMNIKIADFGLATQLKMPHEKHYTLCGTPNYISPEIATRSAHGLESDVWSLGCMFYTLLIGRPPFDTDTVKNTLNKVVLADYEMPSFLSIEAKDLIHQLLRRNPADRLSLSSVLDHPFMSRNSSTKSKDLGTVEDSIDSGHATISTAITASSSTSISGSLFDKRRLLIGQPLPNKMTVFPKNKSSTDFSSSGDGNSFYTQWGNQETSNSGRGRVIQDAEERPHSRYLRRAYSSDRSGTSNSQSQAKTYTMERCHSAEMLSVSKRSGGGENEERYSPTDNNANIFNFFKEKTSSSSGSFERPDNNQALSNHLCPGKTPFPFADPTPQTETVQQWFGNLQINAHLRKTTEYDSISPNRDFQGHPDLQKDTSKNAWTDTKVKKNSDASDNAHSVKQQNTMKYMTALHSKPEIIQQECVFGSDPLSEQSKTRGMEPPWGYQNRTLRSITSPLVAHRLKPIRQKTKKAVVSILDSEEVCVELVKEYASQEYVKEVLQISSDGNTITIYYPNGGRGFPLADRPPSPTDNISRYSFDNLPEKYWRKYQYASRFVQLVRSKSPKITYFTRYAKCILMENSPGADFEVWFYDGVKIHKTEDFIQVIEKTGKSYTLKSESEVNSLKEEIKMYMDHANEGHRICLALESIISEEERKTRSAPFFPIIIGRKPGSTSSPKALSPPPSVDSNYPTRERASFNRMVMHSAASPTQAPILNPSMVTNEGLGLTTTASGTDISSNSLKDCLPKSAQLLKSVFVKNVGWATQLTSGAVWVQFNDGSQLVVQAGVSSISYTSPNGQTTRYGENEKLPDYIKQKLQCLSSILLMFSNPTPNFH
# Outline: (§1)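 Commercial selectivity screen of the test compound against a panel of 380 human recombinant protein kinases, run by an outside contractor at several compound concentrations to check whether its potency was specific for MK2.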
# [2] = biological target: T2, 380 human recombinant protein kinases (Homo sapiens, UniProt P05771); conditions: PKCβI(h), read-out: Inhibition rate
# T2 construct: purchased Eurofins (Celle Lévescault)
# Outline: as §1
# [3] = biological target: T3, 380 human recombinant protein kinases (Homo sapiens, UniProt P23458); conditions: JAK1(h), read-out: Inhibition rate
# T3 construct: purchased Eurofins (Celle Lévescault)
# Outline: as §1
# [4] = biological target: T4, 380 human recombinant protein kinases (Homo sapiens, UniProt Q08345); conditions: DDR1(h), read-out: Inhibition rate
# T4 construct: purchased Eurofins (Celle Lévescault)
# Outline: as §1
# [5] = biological target: T5, 380 human recombinant protein kinases (Homo sapiens, UniProt Q15418); conditions: Rsk1(h), read-out: Inhibition rate
# T5 construct: purchased Eurofins (Celle Lévescault)
# Outline: as §1
# [6] = biological target: T6, 380 human recombinant protein kinases (Homo sapiens, UniProt Q6P2M8); conditions: CaMKIß(h), read-out: Inhibition rate
# T6 construct: purchased Eurofins (Celle Lévescault)
# Outline: as §1
# [7] = biological target: T7, 380 human recombinant protein kinases (Homo sapiens, UniProt Q8TDR2); conditions: CLIK1(h), read-out: Inhibition rate
# T7 construct: purchased Eurofins (Celle Lévescault)
# Outline: as §1
# [8] = biological target: T8, 380 human recombinant protein kinases (Homo sapiens, UniProt Q9HC98); conditions: NEK6(h), read-out: Inhibition rate
# T8 construct: purchased Eurofins (Celle Lévescault)
# Outline: as §1
# [9] = biological target: T9, 380 human recombinant protein kinases (Homo sapiens, UniProt Q9UPZ9); conditions: ICK(h), read-out: Inhibition rate
# T9 construct: purchased Eurofins (Celle Lévescault)
# T9 sequence (Q9UPZ9 1-632): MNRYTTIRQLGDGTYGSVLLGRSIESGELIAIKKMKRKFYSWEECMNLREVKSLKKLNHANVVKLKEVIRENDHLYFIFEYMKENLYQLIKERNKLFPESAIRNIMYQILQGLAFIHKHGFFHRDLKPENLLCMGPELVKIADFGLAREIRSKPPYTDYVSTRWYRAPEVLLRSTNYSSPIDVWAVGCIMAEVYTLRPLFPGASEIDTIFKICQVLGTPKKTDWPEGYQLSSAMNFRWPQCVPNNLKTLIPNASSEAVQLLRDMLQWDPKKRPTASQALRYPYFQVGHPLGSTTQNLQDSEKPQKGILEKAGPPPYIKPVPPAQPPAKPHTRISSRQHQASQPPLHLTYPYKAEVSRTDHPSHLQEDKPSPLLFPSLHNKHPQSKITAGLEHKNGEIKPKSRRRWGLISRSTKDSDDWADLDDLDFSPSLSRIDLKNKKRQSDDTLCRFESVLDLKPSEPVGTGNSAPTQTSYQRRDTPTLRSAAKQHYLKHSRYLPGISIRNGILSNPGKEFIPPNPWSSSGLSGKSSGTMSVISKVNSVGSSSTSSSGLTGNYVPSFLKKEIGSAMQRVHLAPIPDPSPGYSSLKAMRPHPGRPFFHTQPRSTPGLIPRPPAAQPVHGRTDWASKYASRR
# Outline: as §1
# [10] = biological target: T10, 380 human recombinant protein kinases (Homo sapiens, UniProt Q9Y463); conditions: DYRK1B(h), read-out: Inhibition rate
# T10 construct: purchased Eurofins (Celle Lévescault)
# Outline: as §1
# T3 sequence (P23458 whole entry): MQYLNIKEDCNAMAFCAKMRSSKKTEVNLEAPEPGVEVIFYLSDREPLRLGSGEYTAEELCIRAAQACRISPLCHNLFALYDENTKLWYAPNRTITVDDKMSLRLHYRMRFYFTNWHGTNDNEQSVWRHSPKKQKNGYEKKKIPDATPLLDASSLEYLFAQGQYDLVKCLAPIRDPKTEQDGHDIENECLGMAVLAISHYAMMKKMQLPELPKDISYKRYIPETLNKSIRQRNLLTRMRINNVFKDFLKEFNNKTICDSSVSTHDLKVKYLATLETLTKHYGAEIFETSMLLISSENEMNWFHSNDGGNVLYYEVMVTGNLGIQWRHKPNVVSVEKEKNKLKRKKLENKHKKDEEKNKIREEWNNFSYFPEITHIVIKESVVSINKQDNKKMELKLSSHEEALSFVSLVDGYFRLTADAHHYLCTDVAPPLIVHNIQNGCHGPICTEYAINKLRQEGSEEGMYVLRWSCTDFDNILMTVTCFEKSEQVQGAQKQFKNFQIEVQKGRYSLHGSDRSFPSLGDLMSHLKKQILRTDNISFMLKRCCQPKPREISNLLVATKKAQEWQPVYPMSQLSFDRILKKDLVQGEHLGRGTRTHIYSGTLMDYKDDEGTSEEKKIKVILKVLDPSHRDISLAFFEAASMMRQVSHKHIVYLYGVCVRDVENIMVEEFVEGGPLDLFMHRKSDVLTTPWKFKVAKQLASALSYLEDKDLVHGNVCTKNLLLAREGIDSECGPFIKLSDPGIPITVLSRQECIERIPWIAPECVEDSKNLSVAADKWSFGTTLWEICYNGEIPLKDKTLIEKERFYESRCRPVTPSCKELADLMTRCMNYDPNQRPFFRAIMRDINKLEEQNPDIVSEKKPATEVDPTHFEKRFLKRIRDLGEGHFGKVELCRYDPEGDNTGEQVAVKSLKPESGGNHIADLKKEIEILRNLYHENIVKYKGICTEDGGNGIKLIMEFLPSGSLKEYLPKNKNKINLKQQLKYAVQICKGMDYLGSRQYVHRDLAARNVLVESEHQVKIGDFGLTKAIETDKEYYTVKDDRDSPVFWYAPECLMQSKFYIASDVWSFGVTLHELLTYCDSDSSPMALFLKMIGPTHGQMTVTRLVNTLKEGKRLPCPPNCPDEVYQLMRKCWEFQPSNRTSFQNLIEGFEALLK
# T10 sequence (Q9Y463 whole entry): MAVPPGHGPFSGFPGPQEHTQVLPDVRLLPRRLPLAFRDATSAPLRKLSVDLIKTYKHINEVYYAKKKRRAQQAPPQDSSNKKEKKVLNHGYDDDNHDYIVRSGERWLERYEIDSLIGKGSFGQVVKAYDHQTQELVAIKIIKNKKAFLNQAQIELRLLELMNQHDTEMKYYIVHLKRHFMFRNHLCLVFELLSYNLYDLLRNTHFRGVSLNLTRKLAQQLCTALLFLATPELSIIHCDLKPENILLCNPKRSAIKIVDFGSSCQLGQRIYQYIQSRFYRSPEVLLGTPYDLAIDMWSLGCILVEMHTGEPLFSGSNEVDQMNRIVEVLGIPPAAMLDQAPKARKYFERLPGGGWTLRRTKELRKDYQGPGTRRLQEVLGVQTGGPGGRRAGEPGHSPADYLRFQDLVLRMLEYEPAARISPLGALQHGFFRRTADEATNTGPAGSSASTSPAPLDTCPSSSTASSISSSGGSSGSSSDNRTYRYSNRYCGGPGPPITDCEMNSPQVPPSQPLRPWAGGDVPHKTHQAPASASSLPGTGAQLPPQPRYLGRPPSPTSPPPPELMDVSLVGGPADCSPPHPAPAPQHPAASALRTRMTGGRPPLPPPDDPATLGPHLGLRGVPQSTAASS
# T8 sequence (Q9HC98 whole entry): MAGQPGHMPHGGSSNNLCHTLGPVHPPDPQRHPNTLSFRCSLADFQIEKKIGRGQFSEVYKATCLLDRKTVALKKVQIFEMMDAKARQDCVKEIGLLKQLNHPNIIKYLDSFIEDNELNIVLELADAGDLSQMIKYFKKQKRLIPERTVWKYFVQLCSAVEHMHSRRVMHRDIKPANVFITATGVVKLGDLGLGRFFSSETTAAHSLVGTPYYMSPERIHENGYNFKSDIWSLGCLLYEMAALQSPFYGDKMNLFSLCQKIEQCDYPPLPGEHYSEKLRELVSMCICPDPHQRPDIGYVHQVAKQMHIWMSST
# T7 sequence (Q8TDR2 whole entry): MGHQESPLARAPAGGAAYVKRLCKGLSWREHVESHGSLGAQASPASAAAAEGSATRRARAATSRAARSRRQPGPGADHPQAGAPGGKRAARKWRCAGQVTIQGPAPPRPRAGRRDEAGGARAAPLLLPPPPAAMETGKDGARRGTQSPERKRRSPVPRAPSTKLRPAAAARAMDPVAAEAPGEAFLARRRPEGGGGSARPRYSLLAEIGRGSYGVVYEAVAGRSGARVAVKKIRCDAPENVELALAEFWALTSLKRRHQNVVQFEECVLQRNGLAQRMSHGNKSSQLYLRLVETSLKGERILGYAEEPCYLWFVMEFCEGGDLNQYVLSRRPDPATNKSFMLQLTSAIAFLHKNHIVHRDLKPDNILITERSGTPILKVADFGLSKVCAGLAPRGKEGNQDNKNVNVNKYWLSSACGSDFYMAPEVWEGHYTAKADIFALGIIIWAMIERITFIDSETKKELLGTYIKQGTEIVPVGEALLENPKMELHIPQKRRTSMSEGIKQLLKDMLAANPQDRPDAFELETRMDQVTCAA
# T6 sequence (Q6P2M8 whole entry): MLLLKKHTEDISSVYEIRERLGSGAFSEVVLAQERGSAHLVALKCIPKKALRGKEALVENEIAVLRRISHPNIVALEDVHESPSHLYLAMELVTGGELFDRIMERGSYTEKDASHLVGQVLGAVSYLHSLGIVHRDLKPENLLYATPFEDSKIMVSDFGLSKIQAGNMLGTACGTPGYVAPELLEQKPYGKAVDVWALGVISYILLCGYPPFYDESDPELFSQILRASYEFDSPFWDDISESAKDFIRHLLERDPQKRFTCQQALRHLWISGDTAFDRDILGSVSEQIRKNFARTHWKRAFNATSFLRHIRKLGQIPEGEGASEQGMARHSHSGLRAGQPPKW
# T4 sequence (Q08345 19-913): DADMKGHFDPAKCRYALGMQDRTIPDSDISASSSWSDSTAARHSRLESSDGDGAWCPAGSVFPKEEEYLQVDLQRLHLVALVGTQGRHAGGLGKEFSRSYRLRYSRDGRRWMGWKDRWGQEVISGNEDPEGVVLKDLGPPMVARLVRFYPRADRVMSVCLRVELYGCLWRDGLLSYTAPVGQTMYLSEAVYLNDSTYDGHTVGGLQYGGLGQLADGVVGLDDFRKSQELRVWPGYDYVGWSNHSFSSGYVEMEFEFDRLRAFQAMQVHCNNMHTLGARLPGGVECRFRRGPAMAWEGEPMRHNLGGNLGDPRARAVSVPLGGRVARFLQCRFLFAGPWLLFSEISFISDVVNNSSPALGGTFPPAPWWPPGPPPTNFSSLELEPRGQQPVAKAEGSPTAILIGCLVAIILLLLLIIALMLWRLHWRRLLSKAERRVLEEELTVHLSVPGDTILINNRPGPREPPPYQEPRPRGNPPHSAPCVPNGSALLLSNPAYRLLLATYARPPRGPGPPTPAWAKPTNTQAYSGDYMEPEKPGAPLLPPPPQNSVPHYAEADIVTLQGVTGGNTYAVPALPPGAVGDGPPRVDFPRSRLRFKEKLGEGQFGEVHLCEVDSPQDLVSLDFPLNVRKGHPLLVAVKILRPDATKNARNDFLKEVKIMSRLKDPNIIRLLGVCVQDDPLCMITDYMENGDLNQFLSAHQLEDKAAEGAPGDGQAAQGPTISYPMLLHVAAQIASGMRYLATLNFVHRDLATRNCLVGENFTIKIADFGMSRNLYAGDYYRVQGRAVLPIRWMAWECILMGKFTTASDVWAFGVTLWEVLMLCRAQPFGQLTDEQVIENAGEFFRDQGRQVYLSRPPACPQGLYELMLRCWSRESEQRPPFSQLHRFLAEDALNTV
# T2 sequence (P05771 whole entry): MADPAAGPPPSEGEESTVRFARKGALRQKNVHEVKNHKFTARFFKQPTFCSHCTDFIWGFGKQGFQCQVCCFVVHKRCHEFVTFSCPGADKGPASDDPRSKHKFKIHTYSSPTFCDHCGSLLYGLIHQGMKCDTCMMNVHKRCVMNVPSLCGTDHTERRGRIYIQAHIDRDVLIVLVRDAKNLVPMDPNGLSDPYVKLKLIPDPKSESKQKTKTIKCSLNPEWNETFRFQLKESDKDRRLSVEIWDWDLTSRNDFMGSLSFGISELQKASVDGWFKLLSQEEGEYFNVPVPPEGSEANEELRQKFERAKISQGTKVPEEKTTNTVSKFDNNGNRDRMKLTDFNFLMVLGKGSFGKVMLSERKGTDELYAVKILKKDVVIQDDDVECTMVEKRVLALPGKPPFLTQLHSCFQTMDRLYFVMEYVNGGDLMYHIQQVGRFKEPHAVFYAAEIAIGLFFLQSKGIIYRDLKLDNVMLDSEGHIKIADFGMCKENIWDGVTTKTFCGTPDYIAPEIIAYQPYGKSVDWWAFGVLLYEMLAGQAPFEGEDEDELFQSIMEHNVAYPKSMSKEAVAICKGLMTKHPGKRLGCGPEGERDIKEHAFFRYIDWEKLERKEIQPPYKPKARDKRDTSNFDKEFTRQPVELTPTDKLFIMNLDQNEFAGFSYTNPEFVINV
smiles,measurement,setting,value
C=CC(=O)Nc1cc(-c2cc(-c3cc4c([nH]3)CCNC4=O)ccn2)ccc1OC(F)(F)F [compound 11],inhibition at 0.01 µM,[1]; 10 nM,9%
same,inhibition at 0.1 µM,[1]; 100 nM,4%
same,inhibition at 1 µM,[1]; 1000 nM,33%
same,inhibition at 0.01 µM,[2]; 10 nM,3%
same,inhibition at 0.1 µM,[2]; 100 nM,1%
same,inhibition at 1 µM,[2]; 1000 nM,-13%
same,inhibition at 0.01 µM,[3]; 10 nM,-6%
same,inhibition at 0.1 µM,[3]; 100 nM,-8%
same,inhibition at 1 µM,[3]; 1000 nM,1%
same,inhibition at 0.01 µM,[4]; 10 nM,0%
same,inhibition at 0.1 µM,[4]; 100 nM,-1%
same,inhibition at 1 µM,[4]; 1000 nM,-7%
same,inhibition at 0.01 µM,[5]; 10 nM,-2%
same,inhibition at 0.1 µM,[5]; 100 nM,-3%
same,inhibition at 1 µM,[5]; 1000 nM,-7%
same,inhibition at 0.01 µM,[6]; 10 nM,-6%
same,inhibition at 0.1 µM,[6]; 100 nM,-2%
same,inhibition at 1 µM,[6]; 1000 nM,-2%
same,inhibition at 0.01 µM,[7]; 10 nM,5%
same,inhibition at 0.1 µM,[7]; 100 nM,33%
same,inhibition at 1 µM,[7]; 1000 nM,65%
same,inhibition at 0.01 µM,[8]; 10 nM,-4%
same,inhibition at 0.1 µM,[8]; 100 nM,-5%
same,inhibition at 1 µM,[8]; 1000 nM,-3%
same,inhibition at 0.01 µM,[9]; 10 nM,3%
same,inhibition at 0.1 µM,[9]; 100 nM,18%
same,inhibition at 1 µM,[9]; 1000 nM,8%
same,inhibition at 0.01 µM,[10]; 10 nM,21%
same,inhibition at 0.1 µM,[10]; 100 nM,77%
same,inhibition at 1 µM,[10]; 1000 nM,97%
